Data: US5763435A, “Sulfate conjugates of ursodeoxycholic acid, and their beneficial use in inflammatory disorders” (priority 1995, dated 1998)

Assays:
Type in all cases: in vivo, Sprague-Dawley rats
[1] = tested on: Principal Bile Acids in Colon; assay: Bile acid composition of colon after oral administration (GC-MS)
Description: (§1) Male Sprague-Dawley rats (Harlan Sprague-Dawley, Inc., Indianapolis, Ind.), weighing 210-290 g, were maintained on a 12-hour light-dark cycle and fed standard laboratory chow ad libitum for 3 days. The animals were then transferred to metabolic cages in which they were housed individually and fed the same diet. UDCA, UDCA 3-sulfate, UDCA 7-sulfate, and UDCA 3,7-disulfate were administered by gavage at a dose of 250 mg/day for 4 consecutive days. Each group comprised 3-6 rats. Body weights of the animals were measured each day. On day 5, the animals were killed by exsanguination under ether anesthesia. Plasma was collected and frozen at -20° C. The liver was removed, rinsed in normal saline, and flash-frozen in liquid nitrogen. Urine and feces were collected every 24 hours and frozen at -20° C. All animals received humane care in compliance with the "Guide for the Care and Use of Laboratory Animals" prepared by the National Academy of Sciences (National Institutes of Health publication no. 86-23, revised in 1985).
(§2) Intestinal contents were weighed and dissected into small pieces. In each group, feces (100 mg) from all animals were pooled on day 4 of the study and then ground into a fine paste. All samples were sonicated and sequentially refluxed in 80% methanol for 2 hours and chloroform/methanol (1:1) for 1 hour. Samples were taken to dryness, and the dried extracts were resuspended in 80% methanol (20 mL). Fractions of the methanolic extract (1/40 of intestinal contents and 1/20 of feces samples) were removed and the internal standard nordeoxycholic acid (10 μg) was added. This extract was diluted with 0.01 mol/L acetic acid (20 mL) and passed first through a column of Lipidex 1000 (bed size, 4×1 cm; Packard Instrument Co., Groningen, The Netherlands) and then through a Bond-Elut C18, cartridge (Analytichem, Harbor City, Calif.). Bile acids were recovered by elution of the Lipidex 1000 column and the Bond-Elut cartridge with methanol (20 mL and 5 mL, respectively), and the combined extracts were taken to dryness. Unconjugated bile acids were isolated and separated from neutral sterol and conjugated bile acids by lipophilic anion exchange chromatography on diethylaminohydroxypropyl Sephadex LH-20 (Lipidex-DEAP; Package Instrument Co.). Recovery of unconjugated bile acids was achieved by elution with 0.1 mol/L acetic acid in 72% ethanol (7 mL) followed by evaporation of the solvents. Total conjugated bile acids were recovered with 9 mL of 0.3 mol/L acetic acid in 72% ethanol, pH 9.6. Salts were removed by passage through a Bond-Elut C18 cartridge after addition of nordeoxycholic acid (10 μg), and conjugated bile acids were recovered by elution with 5 mL of methanol. Solvolysis was performed in a mixture of methanol (1 mL), distilled tetrahydrofuran (9 mL), and 1 mol/L trifluoracetic acid in dioxane (0.1 mL) and heated to 45° C for 2 hours. After solvolysis, unconjugated bile acids were isolated by chromatography on Lipidex-DEAP. Methyl ester derivatives were prepared by dissolving the sample in methanol (0.3 mL) and reacting with 2.7 mL of freshly distilled ethereal diazomethane. After evaporation of the reagents, the methyl ester derivatives were converted to trimethylsilyl ethers by the addition of […] of Tri-Sil reagent (Pierce Chemicals, Rockford, Ill.). A column of Lipidex 5000 (Packard Instrument Co.) was used to remove derivatizing reagents and to purify the sample.
GC-MS analysis was performed using a Finnigan 4635 mass spectrometer (Finnigan Inc., San Jose, Calif.) that housed an identical gas chromatography column operated under the same conditions. Electron ionization (70 eV) mass spectra were recorded over the mass range of 50-800 daltons by repetitive scanning of the eluting components. […]

[2] = Urinary excretion of UDCA after oral administration
Description: as §1
In each group, urine from all animals was pooled on the individual days of collection. Day 1 represented the baseline sample, and samples from days 2, 3 and 4 were obtained during bile acid administration. After the addition of nordeoxycholic acid (1 μg), bile acids were quantitatively extracted from portions of urine (3 mL) and plasma (1 mL) using Bond-Elut C18 cartridges. After liquid-solid extraction, isolation and separation of unconjugated and conjugated bile acids were achieved by lipophilic anion-exchange chromatography on Lipidex-DEAP. Solvolysis of bile acid conjugates and isolation of the hydrolyzed products were performed as described above, and bile acids were converted to volatile methyl ester-trimethylsilyl ether derivatives.
GC-MS analysis was performed using a Finnigan 4635 mass spectrometer (Finnigan Inc., San Jose, Calif.) that housed an identical gas chromatography column operated under the same conditions. Electron ionization (70 eV) mass spectra were recorded over the mass range of 50-800 daltons by repetitive scanning of the eluting components. Identification of bile acids was made on the basis of the gas chromatography retention index relative to a homologous series of n-alkanes, referred to as the methylene unit value, and the mass spectrum compared with authentic standards. Quantification of bile acids was achieved using gas chromatography by comparing the peak height response of the individual bile acids with the peak height response obtained from the internal standard.
Liquid secondary ionization mass spectrometry negative ion spectra of urine samples were obtained after placing approximately 1 μL of the methanolic extract onto a small drop of a glycerol/methanol matrix spotted on a stainless steel probe. This probe was introduced into the ion source of a VG Autospec Q mass spectrometer, and a beam of fast atoms of cesium, generated from cesium iodine (35 KeV), was fired at the target containing the sample. Negative ion spectra were obtained over the mass range of 50-1000 daltons.
Data are expressed as mean±SEM or as mean values of all animals when extracts were pooled before analysis. Results from different groups were compared using paired and unpaired two-tailed Student's t-test. P values of <0.05 were considered statistically significant.

[3] = tested on: Principal Bile Acids in Jejunum; assay: Bile acid composition of jejunum after oral administration (GC-MS); details: oral gavage 250 mg/day, 4 days, mean ± SEM; for UDCA mass in jejunum: 24 hours after final dose
Description: as §1, §2
Samples of liver (100 mg) were ground to a fine paste, and bile acids were extracted by reflux and passage through a column of Lipidex 1000 as described above for intestinal contents and feces. Group separation of bile acids, according to their mode of conjugation was achieved by lipophilic anion-exchange chromatography. […]

[4] = oral gavage 250 mg/day, 4 days, mean ± SEM

SMILES: C[C@H](CCC(=O)O)[C@H]1CC[C@H]2[C@@H]3[C@@H](OS(=O)(=O)O)C[C@@H]4C[C@H](OS(=O)(=O)O)CC[C@]4(C)[C@H]3CC[C@]12C [UDCA-DS, ursodeoxycholic acid 3,7-disulfate]
- Chenodeoxycholic acid mass in colon [1, 4]: 0.07 mg
- Cholic acid mass in colon [1, 4]: 0.23 mg
- Cholic acid percent of colonic bile acids [1, 4]: 26.3%
- Deoxycholic acid mass in colon [1, 4]: 0.31 mg
- Deoxycholic acid percent of colonic bile acids [1, 4]: 27.2%
- Lithocholic acid mass in colon [1, 4]: 0.02 mg
- Lithocholic acid percent of colonic bile acids [1, 4]: 1.8%
- Total bile acid mass in colon [1, 4]: 1.22 mg
- UDCA mass in colon [1, 4]: 0.20 mg
- UDCA percent of colonic bile acids [1, 4]: 14.7%
- Δ^22-UDCA percent of colonic bile acids [1, 4]: 0%
- Δ^22-β-Muricholic acid mass in colon [1, 4]: 0.01 mg
- Δ^22-ω-Muricholic acid mass in colon [1, 4]: 0.06 mg
- α-Muricholic acid mass in colon [1, 4]: 0.03 mg
- β-Muricholic acid mass in colon [1, 4]: 0.06 mg
- ω-Muricholic acid mass in colon [1, 4]: 0.24 mg
- Change in colonic deoxycholic / lithocholic acid (in words) ([1]; oral, vs control): substantial reductions in the mass and proportion of both deoxycholic acid and lithocholic acid
- Urinary excretion of sulfate conjugates of UDCA [2]: 217.1 nmol/day
- Urinary unconjugated UDCA excretion [2]: 1.3 nmol/day
- UDCA mass in jejunum ([3]; listed as UDCA 3,7-SULFATE): 0.21 mg
- UDCA mass in jejunum ([3]; listed as UDCA 3,7-disulfate): 0.21 ± 0.07 mg
- Chenodeoxycholic acid mass in jejunum [3]: 0.12 mg
- Cholic acid mass in jejunum [3]: 6.78 mg
- Cholic acid percent of jejunal bile acids [3]: 66.0%
- Deoxycholic acid mass in jejunum [3]: 0.5 mg
- Deoxycholic acid percent of jejunal bile acids [3]: 5.2%
- Lithocholic acid percent of jejunal bile acids [3]: 0%
- Total bile acid mass in jejunum [3]: 10.24 mg
- UDCA percent of jejunal bile acids [3]: 2.0%
- Δ^22-UDCA mass in jejunum [3]: 0.21 mg
- Δ^22-UDCA percent of jejunal bile acids [3]: 2.1%
- Δ^22-β-Muricholic acid mass in jejunum [3]: 0.34 mg
- Δ^22-ω-Muricholic acid mass in jejunum [3]: 0.12 mg
- β-Muricholic acid mass in jejunum [3]: 1.70 mg
- ω-Muricholic acid mass in jejunum [3]: 0.24 mg
